Tests used:
PduS = target: T1, PduS (Citrobacter freundii, UniProt B1VB77); experiment: heat release of bound flavin, RP-HPLC-MS against FMN and FAD standards; type: binding; conditions: non-covalently bound, co-purified
T1 construct: full length, N-terminal hexa-His tag (pET14b, pJP024; template pAR3114), E. coli BL21(DE3)pLysS; FMN and two [4Fe-4S] when purified anaerobically
T1 sequence (B1VB77 1-451): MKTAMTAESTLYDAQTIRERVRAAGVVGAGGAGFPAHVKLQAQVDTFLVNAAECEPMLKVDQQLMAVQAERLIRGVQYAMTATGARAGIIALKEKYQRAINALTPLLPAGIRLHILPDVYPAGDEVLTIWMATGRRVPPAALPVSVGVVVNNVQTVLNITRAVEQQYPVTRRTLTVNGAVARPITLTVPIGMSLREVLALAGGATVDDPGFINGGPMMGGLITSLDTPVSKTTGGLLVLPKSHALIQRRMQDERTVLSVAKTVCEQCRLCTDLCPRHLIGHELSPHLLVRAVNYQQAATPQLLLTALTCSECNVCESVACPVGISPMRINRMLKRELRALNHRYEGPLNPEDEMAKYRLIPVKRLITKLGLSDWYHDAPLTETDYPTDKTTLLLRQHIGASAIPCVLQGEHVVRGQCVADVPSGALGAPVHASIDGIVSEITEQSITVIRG

purified protein = substrate: NC(=O)C1=CN([C@@H]2O[C@H](COP(=O)(O)OP(=O)(O)OC[C@H]3O[C@@H](n4cnc5c(N)ncnc54)[C@H](O)[C@@H]3O)[C@@H](O)[C@H]2O)C=CC1; experiment: purified protein; type: biochemical, Citrobacter freundii; conditions: cob(III)alamin as co-substrate, 20 mM Tris-HCl pH 8.0, 37 °C, anaerobic

`Cc1cc2nc3c(=O)[nH]c(=O)nc-3n(C[C@H](O)[C@H](O)[C@H](O)COP(=O)(O)O)c2cc1C` [FMN] was tested. Which “heat release of bound flavin, RP-HPLC-MS against FMN and FAD standards” value (PduS) did it give?
Its value is “flavin extracted from PduS was found to have a retention time identical to authentic FMN”.

B1: PduS (Citrobacter freundii) (protein)
chain: T1 sequence (B1VB77 1-451)
notes: full length, N-terminal hexa-His tag (pET14b, pJP024; template pAR3114), E. coli BL21(DE3)pLysS; FMN and two [4Fe-4S] when purified anaerobically
With B1 as the molecule, how does the Km (purified protein) read?
Its Km is 24.7 µM.

— PMC2982820, “Characterisation of PduS, the pdu Metabolosome Corrin Reductase, and Evidence of Substructural Organisation within the Bacterial Microcompartment” (PLoS ONE, 2010)
